Literature values in PMC5974752, “Bax/Tubulin/Epithelial-Mesenchymal Pathways Determine the Efficacy of Silybin Analog HM015k in Colorectal Cancer Cell Growth and Metastasis” (Frontiers in Pharmacology, 2018).

Columns and labels:
[1] = test system: xenograft model in mice using SW480 cells; set-up: method as in Kaur et al., 2010; conditions: i.p. 100 or 200 mg/kg; ref Kaur et al., 2010; cited from earlier work
[2] = test system: CRC lines HCT116 and HT29; set-up: method as in Agarwal et al., 2003; conditions: ref Agarwal et al., 2003, cited from earlier work
[3] = test system: ARCaP(M) cells; set-up: method as in Wu et al., 2009; conditions: 100 and 200 μM; ref Wu et al., 2009; cited from earlier work
[4] = test system: PC3 and PC3MM2 cells; set-up: method as in Deep et al., 2011; conditions: 30 and 90 μM; ref Deep et al., 2011; cited from earlier work
[5] = test system: SW480 cells with a mutant APC gene; set-up: method as in Kaur et al., 2010; conditions: 50–200 μM; ref Kaur et al., 2010; cited from earlier work
[6] = test system: EMT—driven resistance; set-up: method as in Cufí et al., 2013; conditions: 100 mg/kg; ref Cufí et al., 2013; cited from earlier work
[7] = test system: PC3 and PC3MM2 cells; set-up: method as in Deep et al., 2011; conditions: 90 μM; ref Deep et al., 2011; cited from earlier work
[8] = set-up: method as in Dixit et al., 2007; Zhu et al., 2013; Amawi et al., 2017b; conditions: ref Dixit et al., 2007; Zhu et al., 2013; Amawi et al., 2017b; cited from earlier work
[9] = test system: transgenic mice with prostate adenocarcinomas; set-up: method as in Singh et al., 2008; conditions: 0.5 and 1% (w/w); ref Singh et al., 2008; cited from earlier work
[10] = test system: Wnt/β-catenin signaling in PC-3, DU-145, MDAMB-231 and T-47D cells; set-up: method as in Lu W. et al., 2012; conditions: 100–200 μM; ref Lu W. et al., 2012; cited from earlier work

Question: What does the source list for COc1cc(C2Oc3cc([C@H]4Oc5cc(O)cc(O)c5C(=O)[C@@H]4O)ccc3OC2CO)ccc1O (some centres unmarked) [silybin]?
Answer: effects in SW480 xenograft [1]: produced similar effects; concentration that inhibits proliferation ([2]; HCT116 and HT29): 50 to 200 µM; cell cycle arrest and apoptosis [2]: induces both G1 and G2 cell cycle arrest and induces apoptosis; invasiveness [3]: inhibits the invasiveness; migratory and invasive capacities [4]: inhibits the migratory and invasive capacities; nuclear β-catenin, c-Myc expression and apoptosis [5]: significantly inhibited the expression of nuclear β-catenin, c-Myc and induced apoptosis; EMT-driven resistance [6]: significantly decreased; E-cadherin and nuclear β-catenin levels [7]: significant upregulation in E-cadherin and downregulation in nuclear β-catenin levels; bioavailability [8]: poor bioavailability; E-cadherin, vimentin and MMP-2 expression [9]: significantly upregulate E-cadherin and decrease the expression of the EMT markers, vimentin and MMP-2; Wnt/β-catenin signaling [10]: significantly decreased
